# Assay results as given in US20130158014A1, “METHOD FOR TREATING DISEASES ASSOCIATED WITH ALTERATIONS IN CELLULAR INTEGRITY USING RHO KINASE INHIBITOR COMPOUNDS” (priority 2008, published 2013).
# Where two headings read alike, the source gives them in different places.
# Tests used:
# p70S6K = molecular target: T1, p70S6K (Homo sapiens, UniProt P23443, T412E); test: p70S6K inhibition assay (IMAP); type: biochemical; conditions: average
# T1 construct: purchased Upstate Chemicon 14-486
# Method: (§1) Inhibition of Akt3 and p70S6K activity was determined using the IMAP™ FP Progressive Binding Kit (Molecular Devices product number R8127). […] Following the pre-incubation, 30 μM ATP was added to initiate the reaction. After 60 minutes at RT, Molecular Devices IMAP™ binding solution was added to bind phosphorylated substrate. After 30 minutes of incubation in the presence of the IMAP™ beads the fluorescence polarization was read and the ratio was reported as mP. IC50 results were calculated using the Prism software from Graphpad. The Ki values were determined according to the following formula: Ki=IC50/(1+([ATP Challenge]/EC50 ATP)).
# [1] = Compound plasma concentrations in unsensitized mice at 15 min post administration; type: in vivo, mouse; conditions: for Mouse Oral PK: mean plasma concentration in mice, 15 minutes post oral administration; for Plasma Mean Concentration: mice, 15 min post administration, mean n = 3 mice
# Method: Test compounds were formulated in water or 1% polysorbate 80 and dosed at 15 μmmol/kg for intraperitoneal (IP) or oral (PO) administration or formulated for intratracheal (IT) administration and dosed at 5 μmmol/kg, which directly targets the lungs. Following completion of the in vivo study, mice were euthanized and blood and plasma collected approximately 2.5-3 hours post administration of test compound for bronchodialator (BD) studies and 24 hours post administration for anti-inflamatory (AI) studies. […] Both plasma samples and lung extracts were assayed for compound concentrations using an on-line, solid phase extraction LC/MS/MS system.
# [2] = Rat oral pharmacokinetics (plasma); type: in vivo; conditions: rat oral PK, mean n = 3 rats, 20-30 μmmol/kg
# Method: Plasma (EDTA K2 anticoagulant) was collected from male, cannulated, CD Sprague Dawley rats to determine the pharmacokinetics of formulations containing compound inhibitors of Rho kinase. Each animal was dosed orally with a 4 ml/kg solution or suspension of each test compound in 10 mM acetate buffered saline, pH 4.5 at a final concentration range of 20-30 μmmol/kg. Blood was collected at 0.25, 0.5, 1, 2, 4, 6, 8, and 24 hours. Plasma samples were assayed for the concentration of the test compound using an on-line, solid phase extraction LC/MS/MS analysis system.
# Samples were analyzed on a QSTAR Elite, hybrid quadrupole time-of-flight mass spectrometer (Applied Biosystems, Framingham, Mass.) coupled with a Symbiosis Pharma integrated, on-line SPE-HPLC system (Spark Holland Inc., Plainsboro, N.J.). Analyst QS 2.0 software was used for instrument control, data acquisition and processing. […] Mobile Phase A consisted of 0.1% ammonium hydroxide in water and Mobile Phase B consisted of 0.1% formic acid in acetonitrile. Pharmacokinetic analyses were performed using WinNonlin software version 5.2 (Pharsight Corporation, Mountain View, Calif.).
# As determined from the plasma concentration versus time curves, the time to peak and peak exposure are represented by the values Tmax and Cmax, respectively. The AUC values (nM*hr) shown were calculated as the areas under the plasma concentration versus time curves from time zero through the time of the last observable value and represent the total exposure of the compound over the course of the study. Half-life values or the amount of time required for the plasma levels of the compound to decline to half the initial value are represented as t1/2.
# [3] = tested on: ova-sensitized, ova-challenged mice; test: Prevention of airway hyperreactivity (Penh, methacholine) in mouse ovalbumin model; type: in vivo; conditions: days 27 to 31; for airway hyperreactivity: intratracheal once a day
# Method: The anti-inflammatory dosing paradigm consists of dosing the animals once a day starting on day 27 and finishing on either day 30 or 31 (1 hr prior to the aerosolized ovalbumin challenges on days 28 to 30) but not on day 32 when hyperreactivity evaluation occurs. […] Exposure to the methacholine doses consisted of a 3 minute period during which a nebulizer was aerosolizing the methacholine and an additional 3 minute period following the cessation of nebulization. […] Enhanced pause (Penh), a unitless index of airway hyperreactivity, is derived from the expiratory side of the respiratory waveform measured via the plethysmograph and is used as an indirect measure of airway resistance and hyperreactivity. […] Following the methacholine dose response, BALF was collected and all animals were anesthetized, bled and euthanized. […] The Penh value at each of the dose levels of methacholine represents the 6-minute average response. Change from baseline (CFB) in Penh was calculated at each methacholine dose and the area under the curve (AUC) for these CFB values was calculated using the trapezoidal rule. This same approach was applied for each mouse across multiple experiments. […] Data from equal experimental conditions across experiments performed on different days were pooled for statistical analysis and data reporting. […] A random intercept for each experiment was assumed to account for possible similarities of the results obtained from a given experiment (i.e., as a “blocking effect”). […] For FIG. 9, linear AUC values from compound treated mice were reported as a percent of linear AUC values from vehicle-treated ovalbumin-sensitized/ovalbumin-challenged (asthmatic) mice.
# [4] = tested on: ova-sensitized, ova-challenged mice; test: Mouse ovalbumin sensitization model: eosinophils in BALF; type: in vivo; conditions: dosed orally once a day, day 27 to day 31; FIG. 4
# Method: Male BALB/c mice were ordered from Charles River Laboratories (Raleigh, N.C.). The animals were approximately 19 to 21 grams at time of receipt. Upon arrival, the animals were randomized into groups of five males per cage and assigned to a dosing group. Animals were quarantined for 7 days under test conditions. They were observed daily for general health status and ability to adapt to the water bottles. Animals were sensitized on day 0 and 14 of study by an intraperitoneal injection with 20 μg of ovalbumin (ova) and 2.0 mg aluminum hydroxide (alum) which initiates the development of a specific T-helper (Th) cells type 2 resulting in asthmatic animals (denoted as Ova in the figures). One group of animals received an injection of saline to use as control animals (denoted as normal in the figures). All animals were challenged with aerosolized 1% ova once daily for 25 minutes on days 28, 29, and 30 (Zosky, et al. Respiratory Research. 2004; 5:15). Aerosol challenge consists of using an Aerogen Aeroneb nebulizer and controller with a particle size of 4-6 μm mass median aerodynamic diameter (MMAD) with a distribution of 400 μl per minute. This aerosol challenge is necessary to target the Th2-driven allergic inflammation in the lower airways. […]
# Bronchoalveolar lavage fluid (BALF) was collected by infusing 3.0 ml of saline with 10% fetal calf serum into the lungs via the trachea and then withdrawing the fluid. The total amount of cells/ml of BALF fluid was determined via manual cell count on hemocytometer. The BALF was centrifuged, supernatant removed and analyzed for cytokine concentrations as described below, and cell pellet reconstituted in 500 μL of fluid. […] Following Hema3 stain, relative percentages of individual leukocytes were determined on a 200 cell count for each sample. The final concentration of individual leukocyte cell types per ml of BALF was determined by multiplication of the relative percentage of individual leukocytes with the total amount of cells/ml of BALF fluid.
# ERK2 = molecular target: T2, ERK2 (Homo sapiens, UniProt P28482); test: Kinase panel screen (KinaseProfiler): ERK2; type: biochemical; conditions: 10 μM ATP, read-out: Percent inhibition ERK2; for activity at 1 µM: 1 μM test compound; for activity at 10 µM: 10 μM test compound
# T2 construct: purchased Upstate, Millipore Bioscience Division (KinaseProfiler service)
# Method: Compounds of Formulae I and II were examined for activity against a selected panel of kinases using the KinaseProfiler™ enzyme profiling services (Upstate, Millipore Bioscience Division). Percent kinase activity at 10 μM and 1 μM test compound and 10 μM ATP was determined against 40 wild-type recombinant human kinases according to Upstate's standard protocol: ASK1, BTK, CSK, c-RAF, GCK, GSK3β, IKKα, IKKβ, IRAK1, IRAK4, JNK1α1, JNK2α2, JNK3, ERK1, ERK2, MAPKAP-K2, MAPKAP-K3, MEK1, MKK4, MKK6, MKK7β, Mnk2, MSK1, PAK3, PDK1, PRAK, ROCK1, Rsk2, SAPK2a, SAPK2b, SAPK3, SAPK4, SRPK1, SRPK2, Syk, TAK1, TBK1, PI3-Kβ, PI3-Kγ, PI3-Kδ.
# [5] = tested on: A-10 rat thoracic aorta cells; test: PDGF-stimulated smooth muscle cell proliferation assay (BrdU); type: cell-based; conditions: for Proliferation at 10 μM: 10 μM test compound
# Method: Effects on cell proliferation were measured using a bromodeoxyuridine (BrdU) incorporation assay. […] Serum free media containing 0.1% BSA was added to the cells. 24 hours later the media was removed and replaced with warmed serum free media. […] Proliferation was then monitored using the BrdU Cell Proiferation Assay, HTS (Calbiochem cat. #HTS01). BrdU was allowed to incorporate into cells for 24 hours prior to the addition of fixative/denaturing solution and the fluorometric detection of incorporated BrdU using a BrdU antibody as per manufacturer's directions. Data are reported as a percent of the PDGF-stimulated BrdU incorporation.
# ROCK2 = molecular target: T3, ROCK2 (Homo sapiens, UniProt O75116); test: Rho kinase inhibition assay (IMAP), ROCK2; type: biochemical; conditions: average
# T3 construct: purchased Upstate/Chemicon 14-451
# Method: Following the pre-incubation, 10 μM ATP was added to initiate the reaction. After 60 minutes at room temperature, Molecular Devices IMAP™ binding solution was added to bind phosphorylated substrate. After 30 minutes of incubation in the presence of the IMAP™ beads, the fluorescence polarization was read and the ratio was reported as mP. IC50 values for compounds and EC50 values for ATP were calculated using the Prism software from Graphpad.
# [6] = tested on: IL-6 secretion from LPS-stimulated human monocytes; test: Human monocyte cytokine secretion assay (LPS): IL-6; type: cell-based; conditions: average percent of stimulated secretion from human monocytes, 10 μM test compound
# Method: (§2) Peripheral blood from healthy human volunteers was collected and the monocytes isolated via Ficoll-paque density centrifugation. […] The cells were allowed to pre-incubate with test compound at the indicated concentration for 30 minutes (37° C., 5% CO2, humidified air); after which the supernatant was removed and media containing compound and 1 ng/mL LPS was added. Cells were allowed to incubate with compounds and LPS for 4 hours at 37° C. after which the supernatant was removed and stored at −80° C. Cytokine concentrations in the supernatant were determined using commercially available Bio-Rad Bio-plex™ kits according the manufacturer's instructions.
# [7] = tested on: IL-1β secretion from LPS-stimulated human monocytes; test: Human monocyte cytokine secretion assay (LPS): IL-1β; type: cell-based; conditions: average percent of stimulated secretion from human monocytes, 10 μM test compound
# Method: as §2
# [8] = tested on: TNF-α secretion from LPS-stimulated human monocytes; test: Human monocyte cytokine secretion assay (LPS): TNF-α; type: cell-based; conditions: average percent of stimulated secretion from human monocytes, 10 μM test compound
# Method: as §2
# Akt3 = molecular target: T4, Akt3 (Homo sapiens, UniProt Q9Y243); test: Akt3 inhibition assay (IMAP); type: biochemical; conditions: IMAP FP assay, 30 μM ATP; average
# T4 construct: purchased Upstate Chemicon 14-502
# Method: as §1
# LPS-challenged mice = test: LPS-induced cytokine production assay (IL-1β in BALF); type: in vivo, mouse; conditions: intratracheal, one hour prior to LPS challenge; BALF four hours after; FIG. 13
# Method: Male BALB/c mice, approximately 19 to 21 grams, were ordered from Charles River Laboratories (Raleigh, N.C.). All animals were challenged with aerosolized LPS (10 μg/ml) for 25 minutes on study day 0. LPS aerosol was generated using an Aerogen Aeroneb nebulizer and controller providing a flow of 400 μl/min and a particle size of 2-4 μm MMAD. Rolipram was administered i.p at 20 mg/kg. […] Total cell counts were determined using the Coulter Counter. For differential evaluations, BALF was centrifuged and cytospin slides prepared and stained […]. Manual leukocyte counts were then completed on 200 cells. The final concentration of individual leukocyte cell types per ml of BALF was determined by multiplication of the relative percentage of individual leukocytes with the total amount of cells/ml of BALF fluid. The concentration of IL-1β in the BALF samples was determined using commercially available Bio-plex kits (Bio-Rad).
# [9] = IMAP FP assay, 30 μM ATP, read-out: p70S6K Ki, Avg
# [10] = average percent of PDGF stimulated proliferation
# [11] = IMAP assay, 10 μM ATP, read-out: ROCK2 Ki, Avg
# T1 sequence (P23443 1-421 T412E limits assumed): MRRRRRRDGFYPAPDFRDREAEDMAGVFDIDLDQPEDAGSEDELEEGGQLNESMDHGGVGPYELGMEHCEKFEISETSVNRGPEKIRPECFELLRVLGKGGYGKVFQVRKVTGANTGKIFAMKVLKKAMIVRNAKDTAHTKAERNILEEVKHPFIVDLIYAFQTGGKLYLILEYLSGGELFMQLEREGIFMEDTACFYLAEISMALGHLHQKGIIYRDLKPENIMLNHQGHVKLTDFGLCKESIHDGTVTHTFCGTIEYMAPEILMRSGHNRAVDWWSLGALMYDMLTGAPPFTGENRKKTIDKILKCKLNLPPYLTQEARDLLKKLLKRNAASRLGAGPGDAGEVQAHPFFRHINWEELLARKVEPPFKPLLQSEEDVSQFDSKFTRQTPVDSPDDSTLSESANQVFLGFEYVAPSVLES
# T3 sequence (O75116 11-552 limits assumed): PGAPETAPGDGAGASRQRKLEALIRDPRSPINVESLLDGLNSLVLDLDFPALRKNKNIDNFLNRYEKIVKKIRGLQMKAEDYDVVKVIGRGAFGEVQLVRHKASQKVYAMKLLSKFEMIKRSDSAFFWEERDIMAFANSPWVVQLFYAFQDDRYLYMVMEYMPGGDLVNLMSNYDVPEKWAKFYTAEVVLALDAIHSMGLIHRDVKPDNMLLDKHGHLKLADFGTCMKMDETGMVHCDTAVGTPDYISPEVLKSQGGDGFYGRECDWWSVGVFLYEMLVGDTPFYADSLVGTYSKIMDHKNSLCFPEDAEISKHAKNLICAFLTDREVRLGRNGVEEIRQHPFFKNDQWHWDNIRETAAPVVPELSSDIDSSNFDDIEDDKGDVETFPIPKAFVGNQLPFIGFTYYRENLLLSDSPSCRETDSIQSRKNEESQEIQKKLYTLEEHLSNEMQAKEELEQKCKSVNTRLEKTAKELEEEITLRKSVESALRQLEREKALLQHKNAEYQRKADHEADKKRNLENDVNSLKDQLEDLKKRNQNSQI
# T2 sequence (P28482 whole entry): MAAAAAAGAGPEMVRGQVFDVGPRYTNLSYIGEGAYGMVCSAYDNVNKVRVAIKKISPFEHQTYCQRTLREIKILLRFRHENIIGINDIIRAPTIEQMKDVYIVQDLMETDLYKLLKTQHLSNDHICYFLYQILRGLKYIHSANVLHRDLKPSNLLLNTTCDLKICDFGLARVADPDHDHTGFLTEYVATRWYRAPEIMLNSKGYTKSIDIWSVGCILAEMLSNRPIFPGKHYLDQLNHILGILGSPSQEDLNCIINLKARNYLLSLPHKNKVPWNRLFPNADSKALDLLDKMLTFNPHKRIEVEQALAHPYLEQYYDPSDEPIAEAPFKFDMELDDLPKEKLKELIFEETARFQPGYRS
# T4 sequence (Q9Y243 whole entry): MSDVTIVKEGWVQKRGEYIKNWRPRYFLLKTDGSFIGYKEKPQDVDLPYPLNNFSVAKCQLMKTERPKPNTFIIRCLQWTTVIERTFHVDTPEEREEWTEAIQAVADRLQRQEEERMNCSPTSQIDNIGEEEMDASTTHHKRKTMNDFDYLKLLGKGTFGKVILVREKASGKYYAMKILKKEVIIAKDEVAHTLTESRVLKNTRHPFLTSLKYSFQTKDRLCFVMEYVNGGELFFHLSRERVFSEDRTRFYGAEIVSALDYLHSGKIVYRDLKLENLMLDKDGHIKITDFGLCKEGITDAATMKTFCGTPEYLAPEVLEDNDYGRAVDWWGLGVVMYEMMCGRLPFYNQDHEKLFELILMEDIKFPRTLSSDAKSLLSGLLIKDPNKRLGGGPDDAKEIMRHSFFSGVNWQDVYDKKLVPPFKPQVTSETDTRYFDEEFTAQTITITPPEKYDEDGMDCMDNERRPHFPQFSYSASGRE
smiles,measurement,setting,value
COc1ccc(CN2CCC[C@H](Nc3ccc4[nH]ncc4c3)C2)cc1 [Compound 1.079],Ki,p70S6K; [9],3.01 µM
same,Ki,p70S6K; read-out: p70S6K Ki,3.01 µM
same,Mouse Oral PK,[1],2443 nM
same,Plasma Mean Concentration,[1],2442.5 nM
OCCOc1cccc(CN2CCC[C@@H](Nc3ccc4[nH]ncc4c3)C2)c1 [Compound 1.092],Vz_F,[2],19.0 L/kg
c1cc2cc(CN3CCC[C@@H](Nc4ccc5[nH]ncc5c4)C3)ccc2o1 [Compound 1.131],airway hyperreactivity to methacholine on Day 32,[3]; oral 15 μMol/kg once a day,prevention of airway hyperreactivity
same,eosinophils per ml of BALF,[4],reduced
CCc1ccc(CN2CCC[C@@H](Nc3ccc4[nH]ncc4c3)C2)cc1 [Compound 1.136],AUC (0-last),[2],BLQ
same,Cmax,[2],BLQ
same,Tmax,[2],BLQ
same,Vz_F,[2],BLQ
same,t½,[2],BLQ
Cc1ccc(CN2CCC[C@@H](Nc3ccc4[nH]ncc4c3)C2)cc1OCCO [Compound 1.161],activity at 1 µM,ERK2,104%
same,activity at 10 µM,ERK2,92%
same,airway hyperreactivity,[3],prevention of airway hyperreactivity
NC(=O)COc1cccc(CN2CCC[C@H](Nc3ccc4[nH]ncc4c3)C2)c1 [Compound 1.195],Ki,p70S6K; [9],2.73 µM
same,Ki,p70S6K; read-out: p70S6K Ki,2.73 µM
same,Mouse Oral PK,[1],108 nM
same,Plasma Mean Concentration,[1],107.9 nM
Cc1ccc(CN2CCC[C@H](Nc3ccc4[nH]ncc4c3)C2)cc1NS(=O)(=O)N(C)C [Compound 1.237],Percent of PDGF Induced Proliferation at 1 μM Avg,"[5]; 1 μM, 10 ng/mL PDGF",63.5%
same,Percent of PDGF Induced Proliferation at 10 μM Avg,"[5]; 10 μM, 10 ng/mL PDGF",51.4%
same,Proliferation at 1 μM,"[5]; average percent of PDGF stimulated proliferation, 1 μM test compound",63.5%
same,Proliferation at 10 μM,[5]; [10],51.4%
same,Ki,ROCK2; [11],0.004 µM
same,Ki,ROCK2; read-out: ROCK2 Ki,0.004 µM
same,IL-6,[6],100.9%
same,IL-1β,[7],97.1%
same,TNF-α,[8],70.6%
same,Ki,Akt3,7.91 µM
Cc1ccc(CN2CCC[C@@H](Nc3ccc4[nH]ncc4c3)C2)cc1NS(=O)(=O)N(C)C [Compound 1.262],Ki,ROCK2; [11],0.004 µM
same,Ki,ROCK2; read-out: ROCK2 Ki,0.004 µM
same,IL-6,[6],156.6%
same,IL-1β,[7],145.7%
same,TNF-α,[8],135.3%
same,Ki,Akt3,0.861 µM
CSc1ccc(CN2CC[C@@H](Nc3cccc4cnccc34)C2)cc1 [Compound 2.026],Proliferation at 10 μM,[5]; [10],52.0%
same,AUC (0-last),[2],BLQ
same,Cmax,[2],BLQ
same,Tmax,[2],BLQ
same,Vz_F,[2],BLQ
same,t½,[2],BLQ
NC(=O)Cn1ccc2cc(CN3CC[C@@H](Nc4cccc5cnccc45)C3)ccc21 [Compound 2.059],activity at 1 µM,ERK2,56%
same,activity at 10 µM,ERK2,12%
same,airway hyperreactivity,[3],prevention of airway hyperreactivity
same,IL-1β in BALF,LPS-challenged mice,reduction
OCCn1ccc2cc(CN3CC[C@@H](Nc4cccc5cnccc45)C3)ccc21 [Compound 2.066],activity at 10 µM,ERK2,12%
same,airway hyperreactivity,[3],prevention of airway hyperreactivity
